Results published in PMC8322070, “A novel orally active HDAC6 inhibitor T-518 shows a therapeutic potential for Alzheimer’s disease and tauopathy in mice” (Scientific Reports, 2021).

Legend:
human HDAC7 = target: T1, human HDAC7 (Homo sapiens, UniProt Q8WUI4); assay: HDAC enzyme assay (HDAC-Glo class IIa), HDAC7; assay type: biochemical; details: concentrations up to 10 μM
T1 construct: purchased SignalChem Pharmaceutical Inc
T1 sequence (Q8WUI4 1-952): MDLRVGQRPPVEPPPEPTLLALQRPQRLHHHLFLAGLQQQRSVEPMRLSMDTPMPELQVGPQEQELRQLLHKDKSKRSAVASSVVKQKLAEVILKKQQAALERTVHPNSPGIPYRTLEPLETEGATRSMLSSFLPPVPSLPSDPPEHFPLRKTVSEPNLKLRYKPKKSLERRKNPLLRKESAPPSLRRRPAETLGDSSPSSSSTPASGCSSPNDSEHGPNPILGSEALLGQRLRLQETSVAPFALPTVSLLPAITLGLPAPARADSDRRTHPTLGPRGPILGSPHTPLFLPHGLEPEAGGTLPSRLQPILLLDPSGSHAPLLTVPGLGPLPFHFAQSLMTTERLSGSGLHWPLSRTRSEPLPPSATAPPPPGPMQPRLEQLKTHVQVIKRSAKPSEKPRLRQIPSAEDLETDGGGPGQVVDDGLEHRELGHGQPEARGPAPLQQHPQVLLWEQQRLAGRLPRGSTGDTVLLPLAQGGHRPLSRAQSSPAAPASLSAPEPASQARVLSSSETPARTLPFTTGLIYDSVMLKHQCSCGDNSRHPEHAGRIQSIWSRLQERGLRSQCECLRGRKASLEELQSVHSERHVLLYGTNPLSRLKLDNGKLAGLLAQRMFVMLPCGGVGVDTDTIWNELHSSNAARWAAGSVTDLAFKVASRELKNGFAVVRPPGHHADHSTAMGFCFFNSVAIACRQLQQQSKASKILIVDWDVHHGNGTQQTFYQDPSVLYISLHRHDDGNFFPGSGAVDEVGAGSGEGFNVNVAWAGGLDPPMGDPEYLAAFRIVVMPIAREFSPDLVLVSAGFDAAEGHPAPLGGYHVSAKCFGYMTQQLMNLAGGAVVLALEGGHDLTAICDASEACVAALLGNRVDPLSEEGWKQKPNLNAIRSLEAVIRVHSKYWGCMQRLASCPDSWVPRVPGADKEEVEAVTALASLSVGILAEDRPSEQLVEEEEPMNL
Procedure: Recombinant HDAC6, HDAC7, HDAC1 were obtained from SignalChem Pharmaceutical Inc. (Richmond, BC, Canada), and recombinant human HDAC4 was prepared at Takeda pharmaceutical company. One μL of T-518 diluted with DMSO was added to 75 μL of assay buffer (24 mM Tris–HCl (pH 7.5), 135 mM NaCl, 0.35 mM KCl, 1 mM MgCl2, 0.01% Tween 20, 0.6 mM GSH) in 384 well plates. Two μL of diluted compounds were added to 384 well plates and 2 μL of recombinant HDAC enzymes was added and then centrifuged at 1000 rpm for 10 s. The final concentrations of each HDAC enzyme were as follows, human HDAC1, 170 pM; human HDAC6, […]; human HDAC4, 68 pM; human HDAC7, 13 pM. After incubation for 60 min at room temperature, 4 μL of HDAC-Glo reagent [HDAC-Glo I/II (Promega) for HDAC6 and HDAC1, HDAC-Glo class IIa (Promega) for HDAC4 and HDAC7] was added to start the reaction. After incubation for 20 min at room temperature, the luminescence was measured by Envision plate reader (PerkinElmer, Waltham, MA, USA). For experiments under the condition of 0 min preincubation, 4 μL of HDAC-Glo reagent was added at first to the 384 well plates including diluted compounds. […] After centrifugation at 1000 rpm for 10 s. and then incubation for 20 min at room temperature, the luminescence was measured by Envision. […] The inhibitory activity of T-518 was expressed as the value of IC50. […]

[1] = tested on: Histone H3 acetylation in mouse primary neural cultures; assay: Histone H3 acetylation in mouse primary neural culture (Western blotting); assay type: cell-based; details: DIV6 mouse primary neural culture, 3 and 30 μM, 24 h
Procedure: T-518, ACY-738, Ricolinostat, and Tubastatin A were synthesized in Takeda. For in vitro cellular experiments, the compounds were solubilized with DMSO and diluted in the culture medium at the indicated concentrations. For in vivo experiments, the compound was reconstituted in 0.5% methylcellulose and administered orally at the indicated doses. After administration, mouse hippocampus was isolated and homogenized in RIPA extraction buffer (50 mM Tris–HCl, 150 mM NaCl, 1% NP-40, 0.5% sodium deoxycholate, and 0.1% SDS, pH 8.0) supplemented with protease and phosphatase inhibitor cocktail (Thermo Fischer, Waltham, MA, USA). The homogenate was centrifuged at 10,000g for 15 min and the supernatant was taken as the RIPA-soluble fraction.
Primary cortical neurons were prepared from E14 C57BL/6J mouse embryos (CLIEA Japan, Inc., Tokyo, Japan) using papain-containing Neuron Dissociation Solutions (Fujifilm Wako, Tokyo, Japan). Isolated cells were suspended in Neurobasal Medium containing B-27 (Thermo Fisher) and seeded on poly-D-lysine-coated plates (Corning, NY, USA) under 5% CO2 at 37 °C for 6 days in vitro (DIV) prior to evaluation of HDAC6 inhibitors. Cells were treated with HDAC6 inhibitors at the indicated concentrations for 24 h and lysed in RIPA extraction buffer (50 mM Tris–HCl, 150 mM NaCl, 1% NP-40, 0.5% sodium deoxycholate, and 0.1% SDS, pH 8.0) supplemented with protease and phosphatase inhibitor cocktail (Thermo Fisher).
Cell lysate or in vivo protein samples were separated by 10% SDS-PAGE, then electrophoretically transferred to 0.45 μm poly-vinylidene difluoride membranes (Millipore). Membranes were blocked for 1 h in Blocking Reagent (TOYOBO, Osaka, Japan), probed with primary antibodies followed by labeling with HRP-coupled secondary antibodies (Amersham, Piscataway, NJ), and then visualized using chemiluminescence reagent (ECL; Amersham). Images were captured using ImageQuant LAS 4000 (GE healthcare Bio-Sciences, Marlborough, MA, USA). Quantitative densitometric analyses were conducted using ImageQuant TL (GE healthcare Bio-Sciences). The protocol was slightly modified for detection of HDAC6 in cortex. Briefly, cerebral cortex was homogenized in RIPA buffer supplemented with 1 μM microstatin, 1 μM MG115, 40 μM Leupeptin, 100 μM ABSF, and 2 mM sodium orthovanadate, separated by 7.5–15% gradient SDS-PAGE and electrophoretically transferred to 0.45 μm poly-vinylidene difluoride membranes (Millipore). Membranes were blocked for 1 h with ECL Prime Blocking Reagent (Amersham, Piscataway, NJ) prior to immunoblotting, visualization, and densitometry as described above.

O=C1c2cc(-c3nnc(C(F)F)o3)cnc2CN1[C@@H]1CCCC[C@H]1NC(=O)C(F)(F)C(F)(F)F [T-518, N-[(1R,2R)-2-{3-[5-(difluoromethyl)-1,3,4-oxadiazol-2-yl]-5-oxo-5H,6H,7H-pyrrolo[3,4-b]pyridin-6-yl}cyclohexyl]-2,2,3,3,3-pentafluoropropanamide]
inhibition of human HDAC7 enzyme activity (human HDAC7): did not obviously inhibit | effect on Histone H3 acetylation [1]: neither T-518 nor Tubastatin A at 3 and 30 μM demonstrates this activity
